From patent publication US7871998B2, “Diphenylazetidinone derivatives possessing cholesterol absorption inhibitory activity” (AstraZeneca AB, priority 2003, dated 2011)

Tests used:
[1] = system: Caco-2 cells; assay: Absorption in a Caco-2 cells model; type: in vitro ADME
Method: (§1) Absorption of the compounds of formula (I) was tested in a Caco-2 cells model (Gastroenterology 1989, 96, 736): […]

[2] = Absorption in a Caco-2 cells model; type: in vitro ADME; details: human
Method: as §1

[3] = system: ^14C-cholesterol absorption; assay: In vivo testing of cholesterol absorption inhibitors (A); parameters: species or system C57BL/6 female mice; details: procedure A, gavage, mice
Method: In vivo Testing of Cholesterol Absorption Inhibitors (A)
C57BL/6 female mice were maintained on regular chow diet and housed in individual cages to collect faeces. Mice were fasted for 3 hours and then gavaged with vehicle or compound. Half an hour later the mice were gavaged with radiolabelled cholesterol. Six hours after the ^14C-cholesterol gavage blood samples were taken via the tail and plasma prepared to determine how much cholesterol were absorbed. 24 hours after the gavage of ^14C-cholesterol the mice were bled and plasma were prepared for analysis. Faeces were collected for 24 hours to assess absorption efficiency.

## NCCCC[C@@H](NC(=O)CNC(=O)COc1ccc([C@@H]2[C@@H](SCC(O)c3ccc(F)cc3)C(=O)N2c2ccc(F)cc2)cc1)C(=O)O (some centres unmarked) [Example 29]
[1]
  Caco value: 0.2 ×10⁻⁶ cm/s

## O=C(COc1ccc([C@@H]2[C@@H](SCC(O)c3ccc(F)cc3)C(=O)N2c2ccc(F)cc2)cc1)NCC(=O)N[C@H](Cc1ccc(O)cc1)C(=O)O (stereo partly drawn) [Example 26, N-{[4-((2R,3R)-1-(4-fluorophenyl)-3-{[2-(4-fluorophenyl)-2-hydroxyethyl]thio}-4-oxoazetidin-2-yl)phenoxy]acetyl}glycyl-D-tyrosine]
[2]
  Papp: 0.07 ×10⁻⁶ cm/s

## CC(C)[C@@H](NC(=O)CNC(=O)COc1ccc([C@@H]2[C@@H](SCC(O)c3ccc(F)cc3)C(=O)N2c2ccc(F)cc2)cc1)C(=O)O (stereo partly drawn) [Example 23, N-{[4-((2R,3R)-1-(4-fluorophenyl)-3-{[2-(4-fluorophenyl)-2-hydroxyethyl]thio}-4-oxoazetidin-2-yl)phenoxy]acetyl}glycyl-D-valine]
[2]
  Papp: 0.06 ×10⁻⁶ cm/s

## NCCC[C@@H](NC(=O)CNC(=O)COc1ccc([C@@H]2[C@@H](SCC(O)c3ccc(F)cc3)C(=O)N2c2ccc(F)cc2)cc1)C(=O)O (stereo partly drawn) [Example 91, N-{[4-((2R,3R)-1-(4-fluorophenyl)-3-{[2-(4-fluorophenyl)-2-hydroxyethyl]thio}-4-oxoazetidin-2-yl)phenoxy]acetyl}glycyl-D-ornithine]
[3]; 0.2 μmol/kg
  inhibition of ^14C-cholesterol absorption: 58%

## O=C(COc1ccc([C@@H]2[C@@H](SCC(O)c3ccc(F)cc3)C(=O)N2c2ccc(F)cc2)cc1)NCC(=O)N[C@H](CC1CCCC1)C(=O)O (stereo partly drawn) [Example 85, N-{[4-((2R,3R)-1-(4-fluorophenyl)-3-{[2-(4-fluorophenyl)-2-hydroxyethyl]thio}-4-oxoazetidin-2-yl)phenoxy]acetyl}glycyl-3-cyclopentyl-D-alanine]
[3]; 0.2 μmol/kg
  inhibition of ^14C-cholesterol absorption: 47%

## O=C(COc1ccc([C@@H]2[C@@H](SCC(O)c3ccc(F)cc3)C(=O)N2c2ccc(F)cc2)cc1)NCC(=O)N[C@H](Cc1ccccc1)C(=O)O (stereo partly drawn) [Example 97, 1-(4-Fluorophenyl)-3-(R)-[2-(4-fluorophenyl)-2-hydroxyethylthio]-4-(R)-{4-[N-{N-[2-(phenyl)-1-(R)-(carboxy)ethyl]carbamoylmethyl}carbamoylmethoxy]phenyl}azetidin-2-one]
[1]
  Caco value: 0.09 ×10⁻⁶ cm/s

## O=C(COc1ccc([C@@H]2[C@@H](SCC(O)c3ccc(F)cc3)C(=O)N2c2ccc(F)cc2)cc1)NCC(=O)N[C@H](CO)C(=O)O (stereo partly drawn) [Example 96, 1-(4-Fluorophenyl)-3-(R)-[2-(4-fluorophenyl)-2-hydroxyethylthio]-4-(R)-{4-[N-{N-[2-(hydroxy)-1-(R)-(carboxy)ethyl]carbamoylmethyl}carbamoylmethoxy]phenyl}azetidin-2-one]
[3]; 5 μmol/kg
  inhibition of ^14C-cholesterol absorption: 87%

## O=C(COc1ccc([C@@H]2[C@@H](SCC(O)c3ccc(F)cc3)C(=O)N2c2ccc(F)cc2)cc1)N[C@@H](C(=O)N[C@@H](CO)C(=O)O)c1ccccc1 (stereo partly drawn) [Example 94, 1-(4-Fluorophenyl)-3-(R)-[2-(4-fluorophenyl)-2-hydroxyethylthio]-4-(R)-{4-[N-(α-(R)-{N-[2-(hydroxy)-1-(S)-(carboxy)ethyl]carbamoyl}benzyl)carbamoylmethoxy]phenyl}azetidin-2-one]
[3]; 5 μmol/kg
  inhibition of ^14C-cholesterol absorption: 89%
